Assay results from paper PMC5866846 (Archives of Toxicology, 2017).
pIC50: −log10 of the molar value.

Columns and labels:
[1] = system: upcyte hepatocytes 653-03 2D6; test: Tam metabolism in upcyte hepatocytes 653-03 2D6, metabolites in culture medium; format: in vitro ADME, human; conditions: cells incubated with 1 µM Tam up to 144 h
Procedure: The medium was replaced every 2–3 days. […].
The culture medium was collected after 24, 48, 72, 96 and 144 h followed by metabolite measurements using HPLC-ESI-MS/MS.
Protein was precipitated by the addition of ACN containing 1% of acetic acid and the corresponding deuterated internal standards to the same volume of the sample followed by centrifugation at 20.000 g for 15 min at RT. […] Analytes were separated on a Zorbax Eclipse Plus C18 column (1.8 µm, 100 × 2.1 mm, Agilent technologies) and detected on a 6460 triple quadrupole mass spectrometer (Agilent technologies) in positive ESI MRM mode. Glucuronides of estrogen-like metabolites were detected separately via MS/MS-measurements in negative ESI MRM mode.
[…]. […] […].

[2] = system: CYP3A4; test: CYP3A4 activity in upcyte hepatocytes after treatment (probe substrate cocktail); conditions: 5 µM, 72 h, parental and derived cell line
Procedure: (§1) Cells were cultivated in hepatocyte culture medium at 37 °C and 5 °% CO2 in a humidified incubator. Before starting experiments, cells were cultivated in hepatocyte culture medium containing 0.5% (v/v) DMSO (Preculture medium) for 5 days (density of 0.8 × 10^4 cells/cm^2) and were subcultivated in high-performance medium containing 0.1% (v/v) DMSO (Metabolism conditioning medium) for 3–5 days (density of 1.6 × 10^5 cells/cm^2, confluence). The medium was replaced every 2–3 days.
(§2) In HLM and supersome™ incubations the formation rate is given as nmol µg^−1 min^−1 and fmol pmol^−1 min^−1, respectively, and was calculated as the mean ± SD. […] The intrinsic Clearance (Clint) was given as Vmax/Km ratio. […] Activity of CYP enzymes in induction assays is given as the fold-change (mean ± SD) compared to the corresponding DMSO-treated control. […] Gene expression patterns of treated cells are given as fold-change compared to the corresponding DMSO-treated control samples, as described above. […] In induction and inhibition experiments corresponding EC50 and IC50 values were calculated by nonlinear regression. In all experiments a level of probability (p) ≤ 0.05 for statistical testing was considered significant.
(§3) As control 0.05 % DMSO was used. The basal CYP activity and induction of CYP activity compared to the DMSO control were measured via HPLC-ESI-MS/MS.

[3] = molecular target: T1, CYP2C8 (Homo sapiens, UniProt P10632); test: Inhibition of CYP2C8 activity in HLM; format: in vitro ADME; conditions: 200 nM to 10 µM, 10 min pre-incubation
T1 sequence (P10632 1-490): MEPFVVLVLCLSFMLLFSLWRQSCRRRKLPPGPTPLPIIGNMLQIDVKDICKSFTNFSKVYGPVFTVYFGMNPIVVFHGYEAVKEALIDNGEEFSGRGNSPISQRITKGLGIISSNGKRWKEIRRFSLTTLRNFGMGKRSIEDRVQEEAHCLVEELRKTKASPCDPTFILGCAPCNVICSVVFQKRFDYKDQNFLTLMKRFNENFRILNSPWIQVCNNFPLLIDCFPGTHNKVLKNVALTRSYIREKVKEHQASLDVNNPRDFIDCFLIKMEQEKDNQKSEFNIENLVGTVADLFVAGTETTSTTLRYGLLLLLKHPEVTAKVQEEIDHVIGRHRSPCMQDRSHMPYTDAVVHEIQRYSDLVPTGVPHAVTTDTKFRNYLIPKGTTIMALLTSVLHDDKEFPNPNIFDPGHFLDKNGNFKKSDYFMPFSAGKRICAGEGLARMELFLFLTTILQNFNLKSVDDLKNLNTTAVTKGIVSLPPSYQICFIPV

[4] = molecular target: CYP2C9 (Homo sapiens, UniProt P11712); test: Inhibition of CYP2C9 activity in HLM; format: in vitro ADME; conditions: human, human liver microsomes, 200 nM to 10 µM, 10 min pre-incubation
Sequence of CYP2C9 (P11712 whole entry): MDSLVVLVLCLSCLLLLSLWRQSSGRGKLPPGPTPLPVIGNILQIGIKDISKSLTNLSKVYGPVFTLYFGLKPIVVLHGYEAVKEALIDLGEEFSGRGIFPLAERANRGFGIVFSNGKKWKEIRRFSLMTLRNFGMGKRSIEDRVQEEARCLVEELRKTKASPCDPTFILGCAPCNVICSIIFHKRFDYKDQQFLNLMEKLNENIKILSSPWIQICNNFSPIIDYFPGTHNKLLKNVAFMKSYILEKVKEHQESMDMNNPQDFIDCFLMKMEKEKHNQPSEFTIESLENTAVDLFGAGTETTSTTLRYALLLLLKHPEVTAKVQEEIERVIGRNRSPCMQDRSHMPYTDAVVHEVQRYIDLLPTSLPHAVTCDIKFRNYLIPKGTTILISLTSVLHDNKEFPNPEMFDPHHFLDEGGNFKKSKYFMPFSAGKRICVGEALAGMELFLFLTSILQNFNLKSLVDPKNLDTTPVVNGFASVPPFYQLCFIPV

[5] = molecular target: CYP2C19 (Homo sapiens, UniProt P33261); test: Inhibition of CYP2C19 activity in HLM; format: in vitro ADME; conditions: human, human liver microsomes, 200 nM to 10 µM, 10 min pre-incubation
Sequence of CYP2C19 (P33261 whole entry): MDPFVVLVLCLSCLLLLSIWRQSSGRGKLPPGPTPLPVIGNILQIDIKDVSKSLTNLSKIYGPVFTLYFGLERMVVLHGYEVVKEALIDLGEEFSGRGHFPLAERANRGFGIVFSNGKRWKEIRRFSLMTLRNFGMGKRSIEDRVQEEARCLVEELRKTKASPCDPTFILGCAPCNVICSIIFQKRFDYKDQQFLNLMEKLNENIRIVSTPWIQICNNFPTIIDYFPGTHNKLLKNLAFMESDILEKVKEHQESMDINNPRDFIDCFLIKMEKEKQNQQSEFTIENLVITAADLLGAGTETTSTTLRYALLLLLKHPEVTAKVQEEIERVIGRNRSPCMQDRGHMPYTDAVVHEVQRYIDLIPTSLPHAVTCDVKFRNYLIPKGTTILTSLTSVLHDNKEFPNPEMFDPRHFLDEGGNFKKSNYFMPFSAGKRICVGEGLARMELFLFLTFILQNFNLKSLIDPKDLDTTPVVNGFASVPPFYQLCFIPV

[6] = system: CYP3A4 gene expression; test: CYP3A4 gene expression in upcyte hepatocytes (Fluidigm RT-PCR); conditions: 5 µM, 72 h, both cell strains
Description: Total RNA was isolated from cells using the Direct-zol™ RNA MiniPrep kit (Zymo Research Corp., Irvine, California). cDNA was synthesized using TaqMan Reverse Transcription Reagents (Life technologies, Applera GmbH, Darmstadt, Germany) and the expression of 25 genes representative of phase I and phase II drug metabolism and transport was quantified by Fluidigm’s BioMark HD high-throughput quantitative chip platform (Fluidigm Corporation, San Francisco, USA). For relative gene expression analysis, the delta-delta-Ct (ΔΔCt) method was used: the Ct values of the target mRNA were first normalized to those of the endogenous control glyceraldehyde-3-phosphate dehydrogenase (GAPDH) followed by dividing values of experimental samples by their corresponding DMSO-treated controls to calculate the x-fold changes of mRNA expression.
as §2, §3

[7] = system: CYP2A6 gene expression; test: CYP2A6 gene expression in upcyte hepatocytes (Fluidigm RT-PCR); format: cell-based, human; conditions: 5 µM, 72 h, both cell strains
Description: (§4) Differences between induced and control samples were compared using Welch’s t-test (GraphPad Prism, version 5.04), when the fold-change was considered biologically relevant (1.5-fold increase or decrease in fold-changes) and corrected for multiple testing according to Bonferroni. […] An unpaired t-test assuming unequal variances was used for testing of differences in the expression patterns, when the fold-change was considered biologically relevant (1.5-fold increase or decrease in fold-changes) and corrected using Bonferroni adjustments.

[8] = system: SLC10A1 gene expression; test: SLC10A1 gene expression in upcyte hepatocytes (Fluidigm RT-PCR); format: cell-based, human; conditions: 5 µM, 72 h, both cell strains
Description: as §4

[9] = molecular target: T1, CYP2C8; test: CYP2C8 activity in upcyte hepatocytes after treatment (probe substrate cocktail); format: cell-based; parameters: host or cells: upcyte hepatocytes 653-03 and 653-03 #138 (653-03 2D6); conditions: human, upcyte hepatocytes 653-03 and 653-03 2D6, probe amodiaquine 5 µM, 5 µM, both cell lines
Procedure: as §1, §2, §3

CC/C(=C(\c1ccc(O)cc1)c1ccc(OCCN(C)C)cc1)c1ccccc1 [4OH-Tam, (Z)-4-Hydroxytamoxifen]
concentration in the supernatant of 653-03 2D6 cells relative to parental cells [1]: up to 20 times
induction of CYP3A4 activity compared to DMSO control [2]: up to 2.1 fold
pIC50 [3]: < 5.00
IC50 of CYP2C8 activity [3]: only minor inhibition
IC50 at 15 min [4]: > 10 µM
IC50 at 15 min [5]: > 10 µM
CYP3A4 gene expression, induction vs DMSO control [6]: up to 5.6 fold
CYP2A6 gene expression, downregulation [7]: up to twofold
SLC10A1 gene expression, downregulation (fold lower) [8]: up to twofold
inhibition at 72 h, 5 µM [9]: ≤ 90%
